Several values for one entry are separate records, joined by “and”; a condition that tells them apart may be missing. Equal values may be shown once. *1 amine or outer side, *2 acyl side, *3 side chain or, on linkers, in order; H or OH if unused. Where a SMILES comes first, the peptide text is derived from it. Bridges are numbered along the chain shown (N, C = ends). [ ]: non-standard residue; d: D form. The star is where a group is joined. Leu(3R-O(AcLeu(3R-OH))) = CC(=O)N[C@H](C(=O)O[C@H](C(C)C)[C@H](N)C(=O)O)[C@H](O)C(C)C; Leu(3R-OH,Nα-propionyl) = CCC(=O)N[C@H](C(=O)*)[C@H](O)C(C)C; X1 = CC(C)[C@@H](O[*:3])[C@H](N[*:1])C(=O)[*:2]; NMeT = CN[C@H](C(=O)O)[C@@H](C)O; dPhLac = O=C(O)[C@H](O)Cc1ccccc1; NMeA = CN[C@@H](C)C(=O)O; NMeDha = C=C(NC)C(=O)O
Target: T1, Gq proteins (Homo sapiens, UniProt P50148)
T1 construct: Native cell membrane preparations from rat brain cortex and human blood platelets; host or cells: human platelets (intact suspension or membrane preparation)
T1 sequence (P50148 1-359): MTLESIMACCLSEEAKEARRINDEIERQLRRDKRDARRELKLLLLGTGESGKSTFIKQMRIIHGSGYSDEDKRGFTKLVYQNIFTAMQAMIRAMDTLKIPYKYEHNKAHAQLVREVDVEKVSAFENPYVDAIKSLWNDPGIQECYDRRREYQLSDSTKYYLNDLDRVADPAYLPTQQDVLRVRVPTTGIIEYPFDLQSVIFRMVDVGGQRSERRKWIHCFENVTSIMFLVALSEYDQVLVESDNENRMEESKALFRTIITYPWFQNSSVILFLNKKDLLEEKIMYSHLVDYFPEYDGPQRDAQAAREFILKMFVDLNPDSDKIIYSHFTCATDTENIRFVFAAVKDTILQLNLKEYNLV
Experiment: Competition binding at human platelet membrane preparations
Conditions: for Ki / pseudo‐Bmax from pseudohomologous competition: human platelet membranes, 37°C
Protocol: Apheresis‐purified human thrombocyte‐plasma concentrates were centrifuged (1,000 g at 4°C for 10 min), and the supernatant was decanted and centrifuged again (at 48,400 g, 4°C, for 60 min). The supernatant was kept and used as platelet‐poor plasma for control experiments; the formed pellet was resuspended in buffer 1 (50‐mM Tris–HCl, 5‐mM EDTA, and 150‐mM NaCl) and centrifuged at 48,400 g, 4°C for 60 min. The supernatant was discarded again and the pellet was resuspended in buffer 2 (5‐mM Tris–HCl and 5‐mM EDTA). The cell suspension was homogenized using an Ultra‐Turrax® (IKA Laborechnik, Staufen, Germany) for 1 min at a speed level of 4, subsequently transferred into cryovials, and stored at −80°C before use (the preparation is stable for several months). For radioligand binding assays, 50 μg of protein per vial was used, determined by the method of Bradford (Bio‐Rad Protein Assay).
The experiments were performed in 50‐mM Tris–HCl buffer, pH 7.4. The final assay volume of 200 μl contained 5 μl of test compound in DMSO, 50 μl of [^3H]PSB‐15900 or [^3H]PSB‐16254, respectively, in buffer, 5 nM of final concentration, and 100 μl of human platelet membrane preparation (50 μg of protein) or intact human platelets (7.5 × 10^6 cells/vial). Non‐specific binding was determined in the presence of 5‐μM FR. The incubation was started by the addition of membrane preparation and was performed at 37°C for 1 hr with gentle shaking. It was terminated by rapid vacuum filtration through GF/C glass‐fibre filters using a Brandel 24‐well harvester. The filters were rinsed three times with approximately 3 ml each of ice‐cold Tris–HCl buffer, 50 mM, pH 7.4 containing 0.1% Tween 20 and 0.1% BSA, to separate bound from free radioligand. The filters were punched out and transferred to scintillation vials. Luma Safe® scintillation cocktail (2.5 ml) was added, and after 6 hr of incubation, the samples were counted for 1 min each, using a liquid scintillation counter (counting efficiency 53%). Experiments in the presence of GTP were additionally performed after preincubation of the membrane preparation with GTP for 1 hr. pIC50 and pKi values were calculated using equations for one‐site competition as implemented in GraphPad Prism 6.01 (GraphPad Inc., La Jolla, CA, USA).

[1] = pKi, versus [^3H]PSB‐15900 (5 nM)
[2] = pKi, versus [^3H]PSB‐16254 (5 nM)

Compound | Kd | Ki (Ki, versus both radioligands) | Ki (Ki, versus [³H]PSB-15900 (5 nM), standard 24-well format) | Ki [1] | Ki [2] | Ki (pKi, versus [³H]PSB-15900 (5 nM), standard 24-well format) | pseudo‐Bmax from pseudohomologous competition (versus [^3H]PSB‐15900 (5 nM)) | pseudo‐Bmax from pseudohomologous competition (versus [^3H]PSB‐16254 (5 nM))
C=C1C(=O)N[C@@H](C)C(=O)N(C)[C@@H](C)C(=O)N[C@@H]([C@H](OC(=O)[C@@H](NC(=O)CC)[C@H](O)C(C)C)C(C)C)C(=O)N(C)[C@@H]([C@@H](C)OC)C(=O)O[C@H](C(C)C)[C@H](NC(C)=O)C(=O)O[C@H](Cc2ccccc2)C(=O)N1C [FR, FR900359] (Ac-[X1][dPhLac][NMeDha]A[NMeA][X1](Leu(3R-OH,Nα-propionyl))[NMeT](Me); ester 1-C) | 4.1 ± 0.5 nM | 3 to 5 nM | 6.91 ± 2.25 nM | 4.07 nM | 2.51 nM | 6.76 nM | 6.28 ± 1.12 pmol·mg^−1 of protein and 6.28 pmol·mg^−1 of protein | 
C=C1C(=O)N[C@@H](C)C(=O)N(C)[C@@H](C)C(=O)N[C@@H]([C@H](OC(=O)[C@@H](NC(C)=O)[C@H](O)C(C)C)C(C)C)C(=O)N(C)[C@@H]([C@@H](C)OC)C(=O)O[C@H](C)[C@H](NC(C)=O)C(=O)O[C@H](Cc2ccccc2)C(=O)N1C [YM, YM‐254890] (Ac-T[dPhLac][NMeDha]A[NMeA][Leu(3R-O(AcLeu(3R-OH)))][NMeT](Me); ester 1-C) | 6.29 ± 0.84 nM | 3 to 5 nM |  | 5.01 nM | 6.31 nM |  |  | 6.61 ± 0.60 pmol·mg^−1 of protein and 6.61 pmol·mg^−1 of protein
